Experimental data published in patent US4070484A, “Antiallergic composition containing aromatic carboxylic amide derivatives and method of using the same” (Kissei Pharmaceutical Co., Ltd., priority 1973, dated 1978).

Tests used:
[1] = system: homologous passive cutaneous anaphylaxis (antigen-antibody reaction); test: Homologous Passive Cutaneous Anaphylaxis in Rats; assay type: in vivo, rat (Wistar male); settings: 200 mg/kg orally 2 hours prior to the injection of antigen; for inhibition at 200 mg/kg: Rattus norvegicus, po
Method: Wistar male rats weighing 120-150 g were used in this experiment. […]. Normal rats were sensitized passively with dilution of the antibody by means of intradermal injection. After 48 hours of the sensitization, the mixture of antigen (EA) and evens blue was injected intravenously. The animals were killed by a blow on the head 30 minutes after the injection, and then the blue spot resulted from the antigen-antibody reaction was measured photometrically.
A given test compound dissolved in 1 % NaHCO3 solution was administrated in a dose of 200 mg/kg orally 2 hours prior to the injection of antigen, while only the vehicle solution was administered to the control group.
The efficacy of the test compounds to inhibit the homologous passive cutaneous anaphlaxis was compared with the value (%) calculated using the following formula: [formula] wherein A stands for the amount of leaked dye in control group and B for the amount of leaked dye in the group administered with a given test compound.

mast cells = settings: known art; cited from earlier work
[2] = system: sensitized mesenteric mast cells; test: Effect on the Disruption of the Sensitized Mast Cells; assay type: cell-based, rat; settings: 10^-5 g/ml, 5 minutes prior to the treatment of antigen
Method: Mesenteric mast cells isolated from normal rats were sensitized passively by means of incubation with rat reaginic antibody at 37° C. After termination of the incubation, the specific antigen (DNP-Ascaris) was added to the incubation medium, then these mast cells in mesentery were fixed with formalin and stained with 0.1 % toluidine blue (in acetic acid buffer; pH: 4.6). The number of mast cells disrupted as a consequence of the antigen-antibody reaction were counted under a microscope. The number of the mast cells disrupted were also counted without the addition of the specific antigen.
A given test compound dissolved in 1 % NaHCO3 solution was added to the incubation medium at a concentration of 10^-5 g/ml, 5 minutes prior to the treatment of antigen, while only the vehicle was added to the control group.
The efficacy of the test compounds to inhibit the mast cell disruption was compared with the value (%) calculated using the following formula: [formula] wherein P stands for the percentage of disrupted mast cells in the control group, Q for the percentage of mast cells disrupted spontaneously and R for the percentage of disrupted mast cells in the group treated with a given test compound.

[3] = Acute Toxicity (LD50) in mice; assay type: in vivo; settings: mouse, in vivo, po, mortality on the 8th day
Method: The median lethal dose (LD50) of the new aromatic carboxylic acid amide derivatives of this invention were determined in dd-stain male and female mice (6 weeks old) by oral administration and in Wistar strain male and female rats (7 weeks old) by oral and intraperitoneal administration. Each animal selected for the experiment was maintained in an air conditioned room at a temperature of 22° ± 1° C and a relative humidity of 55 ± 5% during the full course of the experiment. All animals were fed compressed pellets (CE-2 type produced by Japan CLEA Co.) and water was available ad libitum by bottle. Five groups of ten animals for each administration route were used.
Since these compounds were isoluble in water, they were suspended in a 0.5% aqueous solution of carboxymethylcellulose at each dosage level. The administrative volume of each agent to 10 g body weight mouse was 0.2 ml for oral administration, while that to 100g body weight of rat was 0.5 ml for intraperitoneal and oral administrations.
The LD50 values were calculated from the mortality on the 8th day by the Litchfield-Wilcoxon's method.

[4] = system: antiallergic action, oral administration to mammalia; test: Antiallergic action (general statements); assay type: in vivo; settings: general statement

| Compound | inhibition at 200 mg/kg [1] | further results |
| --- | --- | --- |
| O=C(C=Cc1ccccc1)Nc1cccc(C(=O)O)c1 [3-(cinnamoylamino)-benzoic acid, reference compound] | 10% |  |
| O=C(C=Cc1ccccc1)Nc1ccc(C(=O)O)cc1 [4-(cinnamoylamino)-benzoic acid, reference compound] | 7% |  |
| OCC(O)COc1ccc(Cl)cc1 (stereo not drawn) [Chlorphenesin, reference compound] | 36.7% | inhibition of mast cell disruption (in words) (mast cells): inhibitor of mast cell disruption |
| COc1ccc(C(C)=CC(=O)Nc2ccccc2C(=O)O)cc1OC [N-(3',4'-dimethoxy-β-methylcinnamoyl)-anthranilic acid] | 66.2% | Inhibition percentage (mast cell disruption) [2]: 45% |
| O=C(C=Cc1cccc(Cl)c1)Nc1ccccc1C(=O)O [N-(3'-chlorocinnamoyl)-anthranilic acid] |  | LD50 at 192 h [3]: 700 mg/kg |
| COc1cc(C=CC(=O)Nc2ccccc2C(=O)O)ccc1OCC(=O)O [N-(3'-methoxy-4'-carboxylmethoxycinnamoyl)-anthranilic acid, reference compound] | 0% |  |
| COc1cc(C=CC(=O)Nc2ccccc2C(=O)O)ccc1OCC(O)CO (stereo not drawn) [N-[3'-methoxy-4'-(2,3-dihydroxypropoxy)-cinnamoyl]-anthranilic acid, reference compound] | 9% |  |
| O=C(C=Cc1ccccc1)Nc1ccccc1C(=O)O [N-cinnamoyl-anthranilic acid, reference compound] | 16.7% |  |
| O=C(C=Cc1ccc(O)cc1)Nc1ccccc1C(=O)O [compound 1, N-(4'-hydroxycinnamoyl)-anthranilic acid] | 36.7% |  |
| COc1cccc(C=CC(=O)Nc2ccc(C(=O)O)cc2)c1O [compound 6, 4-(2'-hydroxy-3'-methoxycinnamoylamino)-benzoic acid] | 33.5% |  |
| COc1cccc(C=CC(=O)Nc2cccc(C(=O)O)c2)c1 [compound 15, 3-(3'-methoxycinnamoylamino)-benzoic acid] | 45% | Inhibition percentage (mast cell disruption) [2]: 18% |
| O=C(C=Cc1ccc(Cl)cc1)Nc1ccccc1C(=O)O [compound 20, N-(4'-chlorocinnamoyl)-anthranilic acid] | 69.4% | LD50 at 192 h [3]: 551 mg/kg |
| O=C(C=Cc1ccccc1Cl)Nc1ccccc1C(=O)O [compound 22, N-(2'-chlorocinnamoyl)-anthranilic acid] | 60.2% | LD50 at 192 h [3]: 343 mg/kg |
| O=C(C=Cc1ccc(F)cc1)Nc1ccccc1C(=O)O [compound 28, N-(4'-fluorocinnamoyl)-anthranilic acid] |  | LD50 at 192 h [3]: 481 mg/kg |
| O=C(C=Cc1cccc(F)c1)Nc1ccccc1C(=O)O [compound 29, N-(3'-fluorocinnamoyl)-anthranilic acid] | 47.5% | LD50 at 192 h [3]: 551 mg/kg |
| O=C(C=Cc1ccccc1F)Nc1ccccc1C(=O)O [compound 30, N-(2'-fluorocinnamoyl)-anthranilic acid] |  | LD50 at 192 h [3]: 321 mg/kg |
| COc1cccc(C=CC(=O)Nc2ccccc2C(=O)O)c1OC [compound 31, N-(2',3'-dimethoxycinnamoyl)-anthranilic acid] | 56.8% |  |
| Cc1ccc(C=CC(=O)Nc2ccccc2C(=O)O)cc1 [compound 42, N-(4'-methylcinnamoyl)-anthracilic acid] | 54% |  |
| COc1cc(OC)c(OC)cc1C=CC(=O)Nc1ccccc1C(=O)O [compound 52, N-(2',4',5'-trimethoxycinnamoyl)-anthranilic acid] | 56.8% |  |
| CCCOc1ccc(C=CC(=O)Nc2ccccc2C(=O)O)cc1OC [compound 54, N-(3'-methoxy-4'-n-propoxycinnamoyl)-anthranilic acid] | 52.2% | Inhibition percentage (mast cell disruption) [2]: 37% |
| COc1cc(C=CC(=O)Nc2ccccc2C(=O)O)ccc1OC(C)C [compound 56, N-(3'-methoxy-4'-isopropoxycinnamoyl)-anthranilic acid] | 47.1% |  |
| COc1cccc(C=CC(=O)Nc2cccc(C(=O)O)c2)c1OC [compound 60, 3-(2',3'-dimethoxycinnamoylamino)-benzoic acid] | 41.1% |  |
| COc1ccc(CCC(=O)Nc2ccccc2C(=O)O)cc1OC [compound 67, N-(3',4'-dimethoxylhydrocinnamoyl)-anthranilic acid] | 55.4% |  |
| Methylenedioxycinnamoylaminobenzoic acid |  | antiallergic action / pharmacological activity (in words) [4]: strong antiallergic action |
| N-(4'-bromocinnamoylamino)-benzoic acid |  | Inhibition (%) [1]: 32.3% |
| cinnamoylaminobenzoic acid [reference compound] |  | antiallergic action / pharmacological activity (in words) [4]: only very weak antiallergic effect |
